Laboratory results: US7553816B2, “p-amidobenzylethers in drug delivery agents” (priority 2001, dated 2009)
Where “and” joins values, the source holds several entries; their conditions need not be identical. Equal entries are not always repeated. Where two headings read alike, the source gives them in different places.

Key:
[1] = tested on: cathepsin B; settings: cited from earlier work
[2] = target: T1, Bovine spleen cathepsin B (Bos taurus, UniProt P07688); type: biochemical; settings: for Products released upon treatment with cathepsin B: HPLC analysis
T1 construct: Bovine spleen cathepsin B (Sigma-Aldrich); purchased Sigma-Aldrich; host or cells: bovine spleen (tissue-derived)
Method: Bovine spleen cathepsin B (Sigma-Aldrich), dissolved in phosphate buffered saline (pH 7.2, 1 mg/mL final concentration), was activated as previously described (Bajkowski, A. S.; Frankfater, A. Specific Spectrophotometric Assays for Cathepsin B. Anal. Biochem. 1975, 68, 119-127). […] In the case of the naphthol ether 2, a 5.0 mM solution in MeOH was diluted to a final concentration of 0.22 mM. Periodically, aliquots were taken, quenched with an equal volume of MeCN, centrifuged, and 100 μL injections analyzed by HPLC (4.6 mm×15 cm C18 column) with detection between 210 and 400 nm. […] The gradient elution was 90% to 10% A over 10 min, followed by 5 min at 10% A, and the flow rate was 1.0 mL/min. The disappearance of substrate and the appearances of released alcohol and Cbz-val-cit were recorded. Cathepsin B hydrolysis rates were calculated according to the disappearance of substrate (Table 7).

[3] = Stability studies in PBS pH 7.2 or acetate buffer pH 5.1 at 37° C., HPLC; type: physicochemical; settings: for Stability pH 5.1, loss of starting material: acetate buffer pH 5.1, 37° C.; for Stability pH 5.1, loss of starting material / Stability pH 7.2, loss of starting material: 7 days; for Stability at pH 5.1 (in words): pH 5.1, 37° C.; for Stability at pH 5.1 (in words) / Stability at pH 7.2 (in words): absence of added enzyme; for Stability at pH 7.2 (in words): pH 7.2, 37° C.; for Stability pH 7.2, loss of starting material: phosphate buffered saline pH 7.2, 37° C.
Method: The other samples were injected directly into the HPLC.

[4] = pooled human serum, 37° C.; for Stability Human serum, loss of starting material: 7 days
Method: Solutions of the substrates (0.08-0.14 mM in DMSO, and 0.22 mM in MeOH for 2) were diluted 10-20-fold in PBS, acetate buffer (25 mM, pH 5.1), or pooled human serum, and incubation was carried out at 37° C. For the serum studies, equal volumes of MeCN were added and the samples were centrifuged prior to HPLC analysis. The other samples were injected directly into the HPLC.

[5] = tested on: L2987 human lung adenocarcinoma cells; assay: In vitro cytotoxicity assay, [3H] thymidine incorporation; type: cell-based
Method: (§1) FIG. 1 is a graph showing the cytotoxic effects on L2987 human lung adenocarcinoma (A and D), WM266/4 (B), and IGR-39 (C) human melanoma cell lines. The cells were exposed to various concentrations of the drugs for 24 h, washed, incubated for a further 48 h, and the cytotoxic activities were quantified through the incorporation of [^3H] thymidine relative to untreated control cells.
(§2) The cell lines (L2987 human lung adenocarcinoma, WM266/4 and IGR-39 human melanomas) were exposed to the agents for 24 h, washed, and viability was determined two days later by measuring the incorporation of ^3H-thymidine compared to the untreated controls.
L2987 human lung adenocarcinoma cells were obtained as previously described (Svensson, H. P.; Vrudhula, V. M.; Emsweiler, J. E.; MacMaster, J. F.; Cosand, W. L.; Senter, P. D.; Wallace, P. M. In Vitro and In Vivo Activities of a Doxorubicin Prodrug in Combination with Monoclonal Antibody β-Lactamase Conjugates. Cancer Res. 1995, 55, 2357-2365). WM266/4 and IGR-39 human melanoma cells were obtained from ATCC (Manassas, Va.) and DSMZ (Braunschweig, Germany), respectively. L2987 and WM266/4 cells were grown in Roswell Park Memorial Institute (RPMI) medium containing 10% fetal bovine serum and 10U/mL penicillin G and 10 μg/mL streptomycin sulfate. Dulbecco's modified Eagle's medium was used in place of RPMI for the IGR-39 cells. The cells (2,500 cells in 0.1 mL medium) were plated into 96-well plates, and after 24 h at 37° C., various concentrations of the drugs in medium (50 μL) were added in triplicate. Incubation was continued for an additional 24 h, the cultures were washed, and fresh medium (0.15 mL) was added. After 48 h at 37° C., [^3H] thymidine (25 μL, 0.5 μCi/well) was added, and the cultures were frozen and harvested 4 h later. Incorporation of label was measured using a β-counter.

[6] = tested on: WM266/4 human melanoma cells; settings: 24 h exposure, 48 h further, range stated for all three cell lines
Method: as §1, §2
(§3) L2987 human lung adenocarcinoma cells were obtained as previously described (Svensson, H. P.; Vrudhula, V. M.; Emsweiler, J. E.; MacMaster, J. F.; Cosand, W. L.; Senter, P. D.; Wallace, P. M. In Vitro and In Vivo Activities of a Doxorubicin Prodrug in Combination with Monoclonal Antibody β-Lactamase Conjugates. Cancer Res. 1995, 55, 2357-2365). WM266/4 and IGR-39 human melanoma cells were obtained from ATCC (Manassas, Va.) and DSMZ (Braunschweig, Germany), respectively. L2987 and WM266/4 cells were grown in Roswell Park Memorial Institute (RPMI) medium containing 10% fetal bovine serum and 10U/mL penicillin G and 10 μg/mL streptomycin sulfate. […] Incorporation of label was measured using a β-counter.

[7] = tested on: IGR-39 human melanoma cells; settings: 24 h exposure, 48 h further, range stated for all three cell lines
Method: as §1, §2, §3

[8] = loss of starting material at 37° C. in pH 5.1 acetate buffer

Compound | Products released upon treatment with cathepsin B [2] | Stability pH 5.1, loss of starting material [3] | Stability at pH 5.1 (in words) [3] | Stability at pH 7.2 (in words) [3] | Stability pH 7.2, loss of starting material [3] | Specific activity of cathepsin B [2, 8] [nmol/ nmol/min/mg] | also measured
COc1cccc2c1C(=O)c1c(O)c3c(c(O)c1C2=O)CC(O)(C(=O)CO)CC3OC1CC(NC(=O)OCc2ccc(NC(=O)C(CCCNC(N)=O)NC(=O)C(NC(=O)OCc3ccccc3)C(C)C)cc2)C(O)C(C)O1 (stereo not shown) [Cbz-val-cit-PAB-doxorubicin carbamate] | – | – | – | – | – | – | Release of drug upon treatment with cathepsin B [1]: released active doxorubicin
CC(C)[C@H](NC(=O)OCc1ccccc1)C(=O)N[C@@H](CCCNC(N)=O)C(=O)Nc1ccc(COc2cccc3ccccc23)cc1 [Compound 2, CBZ-VAL-CIT-PAB-1-O-NAPHTHOL] | the products formed were naphthol and Cbz-val-cit-COOH | 0% loss, 7 days | no breakdown | no breakdown | 0% loss, 7 days | – | Specific activity of cathepsin B ([2]; pH 5.1): 350 nmol/min/mg and 350 nmol/ nmol/min/mg; Stability in human serum (in words) [4]: no breakdown; Stability Human serum, loss of starting material [4]: 0% loss, 7 days
COc1cc([C@@H]2c3cc4c(cc3[C@@H](O[C@@H]3O[C@@H]5CO[C@@H](C)O[C@H]5[C@H](O)[C@H]3O)[C@H]3COC(=O)[C@H]23)OCO4)cc(OC)c1OCc1ccc(NC(=O)[C@H](CCCNC(N)=O)NC(=O)[C@@H](NC(=O)OCc2ccccc2)C(C)C)cc1 [Compound 6, CBZ-VAL-CIT-PAB-O-ETOPOSIDE] | release of etoposide (VIIIa) | 0% loss, 7 days | stable | stable | 0% loss, 7 days | 160 | Cytotoxic activity, times etoposide (VIIIa) more active than 6 ([5]; L2987, 24 h exposure, 48 h further, range stated for all three cell lines): 15-22 times; Cytotoxic activity, times etoposide (VIIIa) more active than 6 [6]: 15-22 times; Cytotoxic activity, times etoposide (VIIIa) more active than 6 [7]: 15-22 times
COc1ccc(/C=C\c2cc(OC)c(OC)c(OC)c2)cc1OCc1ccc(NC(=O)[C@H](CCCNC(N)=O)NC(=O)[C@@H](NC(=O)OCc2ccccc2)C(C)C)cc1 [Compound 7, CBZ-VAL-CIT-PAB-3′-O-COMBRETASTATIN A-4] | combretastatin A-4 (VIIIb) | 0% loss, 7 days | stable | stable | 0% loss, 7 days | 61 | Factor less potent than combretastatin A-4 (VIIIb) ([5]; L2987 human lung adenocarcinoma cells (FIG. 1D)): 13; Stability in human serum (in words) [4]: stable; Stability Human serum, loss of starting material [4]: 0% loss, 7 days
COc1ccc(/C=C\c2cc(OC)c(OC)c(OC)c2)cc1OC(=O)OCc1ccc(NC(=O)[C@H](CCCNC(N)=O)NC(=O)[C@@H](NC(=O)OCc2ccccc2)C(C)C)cc1 [Compound 11, CBZ-VAL-CIT-PAB-OCO-COMBRETASTATIN A-4] | VIIIb | – | – | – | – | 32 | Cytotoxicity compared with combretastatin A-4 (VIIIb), in words ([5]; FIG. 1D): as cytotoxic as combretastatin A-4 (VIIIb); Stability in aqueous environments (in words) ([3]; aqueous environments): unstable
CBZ-VAL-CIT-PAB-O-(N-AC)-NOR [Compound 5] | no N-acetylnorephedrine was detected | 0% loss 7 d | – | – | 0% loss 7 d | 145 | –
CBZ-VAL-CIT-PAB-OCO-(1S, 2R)-(N-ACETYL)NOREPHEDRINE [Compound 10] | formation of 4 | – | – | – | – | 150 | –
